row,Compound,melting point [°C]
1,CCCCCC(=O)Nc1ccc2ccn(CCCO)c2c1,87 to 88
2,Cc1ccnc(C(=O)c2[nH]c3cc(F)ccc3c2CC(=O)O)c1,208
3,ClCSc1ccccc1Br,28 to 30
4,NS(=O)(=O)NC(=O)N1C[C@H](NC(=O)Cc2ccccc2)C1=O,137
5,CCc1cccc(CC)c1NS(=O)(=O)c1ccc(C)cc1,130 to 131
6,CCN(C)C(=S)Nc1cc(Cl)c(OCCC[Si](C)(C)C)cc1C,71 to 72
7,COC(=O)c1cc(-c2cccc(Cl)c2Cl)c(C(=O)OC)[nH]1,143 to 145
8,Nc1nsnc1NCCCOc1cccc(CN2CC=CCC2)c1,99.5 to 104
9,NS(=O)(=O)c1ccccc1OC(F)(F)C(F)F,117 to 119
10,COC(=O)C(Cl)(Cl)Cc1c(Cl)cc(Cl)cc1Cl,56 to 57
11,ON=Cc1ccc(N2CCC3(CC2)OCCO3)cc1,151 to 152
12,Cc1[nH]ncc1C(=O)Nc1ccc(OCC(C)(C)C)c(C#N)c1,133 to 134
13,COc1cc2ncnc(N3CCC(C(C)=O)CC3)c2cc1OC,116 to 117
14,Nc1c(OC[C@@H]2CO2)cccc1[N+](=O)[O-],107 to 109
15,CCCCn1nc(C(N)=O)cc1CC,60 to 61
16,O=C(O)c1cnn2c(C(F)(F)F)cc(-c3ccc(Cl)c(Cl)c3)nc12,264
17,CSCc1cnc2c(C)cccc2c1O,226 to 228
18,Nc1nnc(-c2cc(F)c(F)c(F)c2O)s1,309
19,Cc1ccc(CC(=O)NC(NC(=NC#N)Nc2cccnc2C)C(C)(C)C)cc1F (configuration not stated),75 to 77
20,COc1cccc(N(C(=O)c2ccc(Br)s2)C2CC2)c1,60
21,CC(C)NC(=S)n1ccc2ccc(Cl)cc21,92 to 93
22,COC(=O)C1=C(CF)NC(C)=C(C(=O)OC(C)C)C1c1cccc(Cl)c1C (configuration not stated),73 to 75
23,Cc1cc(CCCCc2cc(C)c(O)c(C(C)(C)C)c2)cc(C(C)(C)C)c1O,106 to 107
24,CS(=O)(=O)Nc1cccc(Nc2nc(N3CCC(O)C3)c3nc[nH]c3n2)c1 (configuration not stated),243 to 248

row,Compound,melting point [°C]
1,CCOCc1cc2c(=O)c(C(=O)NCc3ccc(Cl)cc3)cn(C)c2o1,211 to 212
2,COc1cccc2c1OCC(C(=O)O)O2 (configuration not stated),85 to 87
3,CCOC(=O)c1c(C)c(C(=O)O)c(C)n1C,197 to 198
4,CCCn1nnn(-c2cc(OC(C)=O)c(Cl)cc2Cl)c1=O,91 to 92
5,CCC(CC)Oc1cc(C)nc(Nc2c(C)cc(C)cc2C)c1,98 to 100
6,CCC(CC)Nc1cc(C(=O)O)ccc1N1C(=O)CCC1(CO)CO,220 to 221
7,CC1(C)CC(=O)C=C(Nc2ccccc2Cl)C1,150 to 152
8,CC1(C)CCC(C)(C)c2cc(C(C(N)=O)C(=O)Nc3ccc(C(=O)O)cc3)ccc21 (configuration not stated),112 to 113
9,O=C1Nc2ccccc2SC1CCBr (configuration not stated),151 to 152
10,ON=C1CCC(C2CCCC2)=C1c1cccc(O)c1,207 to 209
11,CC(=O)OCCCCN(C)CCN(C)C(=O)[C@@H]1CCCN1S(=O)(=O)c1ccc(Cl)c(COc2cccc3c(-n4ccnc4)cc(C)nc23)c1Cl,76
12,CCOC(=O)CC(NC(=O)c1ccc(F)cc1)C(=O)c1ccco1 (configuration not stated),95.5 to 97
13,CCc1ccc(C(C)=O)c(NC(C#N)c2c(Cl)cccc2Cl)c1 (configuration not stated),111
14,COC(=O)CC/C(C)=C/Cc1c(N=C=O)c2c(c(C)c1OC)COC2=O,95 to 101
15,O=c1ccc2cc(-n3cnnc3)cc(C(F)(F)F)c2[nH]1,> 320
16,Cc1nnc2ccc(-c3cccc(NC(=O)N(C)C)c3)nn12,237 to 239
17,N#CC=Cc1cccc(Cl)c1F,90 to 92
18,OCC1CCC(CBr)CC1 (configuration not stated),146 to 149
19,O=C(O)c1ccc(-c2ccncc2)cc1[N+](=O)[O-],314 to 316
20,CC(C)OC(=O)NC1=NCC(c2cccc(F)c2)N1C (configuration not stated),103 to 104
21,Cc1ccccc1CN(O)C(=O)C(C)(C)CCl,112 to 113
22,CCc1c(OC)nc2nc(C(N)=O)cn2c1C,256 to 259
23,N#CC(NC(=O)c1cccn2ccnc12)c1ccco1 (configuration not stated),149 to 151
24,COc1ccc(C(=O)NCCCSc2nnnn2C)cc1,118 to 122

row,Compound,melting point [°C]
1,CC(C)c1cc(C(C)(C)C)cc(C=O)c1O,128 to 130
2,CCCCn1c(CCC)cc(=O)c(C(=O)Nc2ccccc2)c1CCC,134 to 136
3,CCOC(=O)C1=C(C)NC(c2cnc(Cl)s2)=NC1c1ccc(F)cc1Cl (configuration not stated),159 to 162
4,O=C(O)COc1ccc(C(=O)CN2CCN(c3ccncc3)CC2)cc1,294 to 296
5,CCCc1nc2c(C)ccnc2n1Cc1ccc2[nH]ccc2c1,110 to 112
6,Cc1ccc(-n2nccn2)c(C(=O)O)c1,168
7,COc1ccc(CNC(=S)SC)cc1,67 to 70
8,CCCC(CCC)Nc1nc(C)nc(Oc2c(Br)cc(C(C)(C)O)cc2OC)c1N,114 to 116
9,Cc1cc(C)n(-c2ccc(C(N)=O)nn2)n1,256 to 257
10,CC(C)(C)c1cc(C=Cc2n[nH]c(=O)[nH]2)cc(C(C)(C)C)c1O,280 to 284
11,CCCCC1Cc2c(c3cccnc3n(-c3ccc(C)cc3)c2=O)O1 (configuration not stated),282 to 284
12,CCCNC(=O)CSc1nc(Cl)cc(Nc2cccc(C)c2C)n1,146 to 148
13,CC(=O)CCc1ccc(C(=O)c2ccc(F)cc2)cc1,67 to 68
14,O=C(O)C[C@@H](NC(=O)CN1C[C@H](c2ccccc2)Oc2ccc(NC(=O)NCc3ccccc3)cc2C1=O)c1ccccc1,138 to 140
15,CCC(N=O)C(C)(C)Cl (configuration not stated),85 to 86
16,CC(C)Oc1cc(-n2c(=O)c(F)c(C(F)(F)F)n(C)c2=O)c(F)cc1Cl,104 to 107
17,CCN(CC)S(=O)(=O)c1cc(-n2c(=O)cc(C(F)(F)F)n(C)c2=O)c(F)cc1Cl,190 to 191
18,CCOC(=O)c1cnc2c(SC(=O)N(C)C)cccn2c1=O,133 to 134
19,CCOc1noc(-c2nc[nH]n2)c1C,194 to 196
20,COC(=O)C1=C(C)NC(C)=C(C(=O)OCC2CCCO2)C1c1cccc(F)c1 (configuration not stated),66 to 68
21,NC(=O)C(CCCCCc1ccc(Cl)cc1)C(=O)O (configuration not stated),125 to 126
22,CC(=O)N1c2ccc(Cl)cc2CC1C#N (configuration not stated),140 to 142

# Results, then the compound that gave them:
row,melting point [°C],Compound
1,89 to 90,Oc1ccccc1C=Nc1cccc(Cl)c1Cl
2,150 to 152,OCc1cccc(-c2ccc3nc(-c4coc5ccccc45)cn3c2)c1
3,240 to 243,COc1ccc(-n2c(-c3cc(-c4ccc(S(C)(=O)=O)cc4)c(N4CCOCC4)s3)nc3ccccc3c2=O)cc1
4,192 to 194,COc1cc(-c2ccccc2F)c(Cl)cc1C(=O)N1Cc2cccn2Cc2ccccc21
5,53,CCCCCCCCOc1ccc(C(=O)Oc2cc(Cl)c(Cl)cc2Cl)cc1
6,263,COc1cccc(SSc2cccc(OC)c2S(N)(=O)=O)c1S(N)(=O)=O
7,120 to 121,O=C(NCc1ccccc1Cl)c1ccc2cnccc2n1
8,129 to 130,COc1ccc(Oc2ncnc(-c3ccc(C(F)(F)F)cc3F)c2N)cc1
9,192 to 193,Cn1cc(-c2cc3cccnc3[nH]2)c2cc(OCCCO)ccc21
10,142 to 150,COCCNC(=O)c1cccc(NC(=O)Oc2ccccc2)c1
11,125,CC(O)(c1cccc(Cl)c1)c1cc(Cl)ccc1O (configuration not stated)
12,253 to 255,CN(N=Cc1ccccc1C(=O)O)c1nc2ccccc2o1
13,126 to 133,Cc1nc2c(OCc3ccccc3)nccn2c1N
14,190 to 192,Cn1c(=O)ccc2c(-c3ccccc3)nccc21
15,205 to 207,O=C(CCc1ccccc1)NCC(=O)N1c2ccccc2N(Cc2ccccc2)C(=O)[C@H]2CCC[C@H]21 (relative stereo)
16,121 to 122,COc1ccc(-n2nc(Sc3cccc(C)c3)c(C)c(C#N)c2=O)cc1
17,138 to 140,COc1cc2c(Nc3ccc(Cl)cc3F)ncnc2cc1OCCCOc1ccncc1
18,196 to 197,Nc1ccc(Oc2cc3ccccc3cc2Oc2ccc(N)c(O)c2)cc1O
19,88 to 90,CC(=O)Cc1ccc(Oc2ccc(C(F)(F)F)cc2)cc1

row,melting point [°C],Compound
1,178 to 180,CCCc1cc(C(O)=S)cc([N+](=O)[O-])c1-c1ccccc1
2,133 to 134,N#Cc1ccc2oc(CCCCCc3cc4cc(C#N)ccc4o3)cc2c1
3,131 to 133,CC(C)(c1ccc2c(=O)c3ccccc3sc2c1)[N+](=O)[O-]
4,134 to 139,Cc1cc(Nc2ccccc2)nc(-n2nc(C)cc2C)n1
5,113 to 115,COC(=O)c1ccc(S(=O)C(Cn2ccnc2)c2ccccc2OC)cc1 (configuration not stated)
6,120 to 125,Cc1ccc(S(=O)(=O)N2CC(NC(=O)c3ccccc3)CC2C(=O)O)cc1 (configuration not stated)
7,158 to 160,C=Cc1ccc(-c2ccc3cc(C(=O)OCc4ccccc4)ccc3c2)cc1C12CC3CC(CC(C3)C1)C2
8,165 to 167,COc1ccc(N2CCN(c3ccncc3)CC2)cc1
9,237 to 238,Cc1c(Cl)ccc(-n2c(-c3ccccc3)cc(=O)c(C)c2-c2ccccc2)c1Cl
10,130 to 133,CC(COc1ccccc1)NC(=Nc1cccnc1)NC#N (configuration not stated)
11,188 to 189,O=C1NC(=O)C(c2cccc3ccccc23)O1 (configuration not stated)
12,243 to 247,COc1ccccc(NC(=O)C2=C(O)c3ccccc3S(=O)(=O)N2C)c1=O
13,145 to 147,O[C@H]1c2cc(OCc3cccnc3)ccc2OC[C@H]1Cc1cccnc1 (relative stereo)
14,49 to 53,COC(=O)C(Br)c1ccc(OCCCOc2ccc(Cl)cc2)cc1 (configuration not stated)
15,144 to 145,O=C(O)Cc1cccc(OCc2ccc3oc([N+](=O)[O-])c(-c4ccccc4)c3c2)c1
16,188 to 190,COc1ccc(-c2c([N+](=O)[O-])cnc3ccc(Cl)cc23)cc1OC
17,88 to 91,CS(=O)(=O)c1ccc(-n2cc(-c3ccc(F)cc3)nc2-c2ccccn2)cc1
18,105 to 108,Cc1cccc(N2C(=O)C(=CN(C)C)c3ccccc32)c1

# Source: a melting point compilation (Tetko et al.; mined from patent text by program, amines drawn as free bases though some values may be those of a salt)
